Reference: article PMC9971101, “Comparison of Five Near-Infrared Fluorescent Folate Conjugates in an Ovarian Cancer Model” (Molecular Imaging and Biology, 2021)

Experiments:
[1] = system: Skov-3 and A549 subcutaneous xenografts; experiment: Ex vivo tumour and organ biodistribution (IVIS Spectrum and FLARE intraoperative system); assay type: in vivo, NOD-scid IL2Rg^null mice; settings: for ex vivo fluorescence signal in tumours (FLARE): Skov-3 tumour; for ex vivo fluorescence in the kidneys (FLARE): exposure time 1000 ms
Method: (§1) All applicable institutional and/or national guidelines for the care and use of animals were followed. All experiments were approved by The Norwegian Animal Research Authority and conducted according to The European Convention for the Protection of Vertebrates Used for Scientific Purposes (Application ID 14128). NOD-scid IL2Rg^null mice (referred to as NSG) were housed in groups of ≤ 5 in individually ventilated cages changed twice per month and kept in a 12-h […] schedule at 21 °C at the Vivarium, University of Bergen. Observations for general condition and body weights were recorded twice per week and, when indicated, the animals were euthanised according to institutional guidelines. Skov-3 and A549 subcutaneous xenografts were established through bi-lateral flank injections of 5 × 10^6 cells, resuspended in 100 μL PBS containing 16.7% Matrigel (Corning Inc., MA, USA). Tumour volumes were measured weekly with a digital calliper and calculated using the ellipsoid volume formula: Volume = π (length × width × height)/6.
Organ biodistribution was assessed ex vivo for each conjugate in Skov-3 and in the control cell line, A549. Four hours after iv administration of 1, 2 and 3 and 24 h after injection of 4 and 5 (100 μl, 10 μM), mice were euthanised and tumours and organs were harvested. FLI was performed with the IVIS Spectrum, and subsequently, fluorescence was acquired using the FLARE® intraoperative system (Curadel LLC), employing the NIR channel #2 (λex = 760 ± 3 nm and λem = > 781 nm longpass) at three different exposure times (500, 1000 and 2000 ms) at a gain of 1. IVIS Spectrum data were analysed as previously described, and FLARE data were analysed using ImageJ (Fiji, version 1.52p, [29]) and the integrated FLARE analysis platform using grey scale values expressed in arbitrary units (AU).

[2] = system: Skov-3 subcutaneous xenografts; experiment: In vivo biodistribution and optimal time point FLI in subcutaneous Skov-3 xenograft model (IVIS Spectrum); parameters: species or system NOD-scid IL2Rg^null mice; settings: for tumour to background ratio (TBR): mean ± SD; for excretion route: mice
Method: as §1
For biodistribution assessment of conjugates 1–5, mice were intravenously (iv) injected with 100 μL of a 10-μM conjugate solution when mean tumour volumes reached ≈150 mm^3, corresponding to a dose of […]. The dose was chosen on the basis of preclinical mouse models previously performed using folate-NIR (OTL38) FLI [28]. To determine the timepoint for the optimal TBR, optical imaging was performed at 0 h, 0.5 h, 1 h, 2 h, 4 h, 6 h, 8 h, 24 h and 48 h using the IVIS Spectrum. Fluorescence signals were analysed with the Living Imaging® software v4.5 (PerkinElmer Inc.) and expressed as average radiance (p/s/cm^2/sr). Regions of interest (ROI) were manually drawn around the subcutaneous tumours in the flanks and the adjacent tissue to calculate TBRs at all time points. Next, subcutaneous xenograft models were imaged at the pre-determined optimal time points, which were 4 h for conjugates 1, 2 and 3 and 24 h for conjugates 4 and 5.

[3] = Fluorescence spectroscopy (excitation and emission spectra); assay type: physicochemical
Method: The spectral characteristics of the conjugates 1–5 were determined using a Spark 20M plate reader (Tecan, Switzerland). The emission and excitation of all conjugates were measured in triplicates with a bandwidth of 5 nm in a 96-well Half-Area Microplate at a concentration of 100 μM dissolved in phosphate buffered saline (PBS). The fluorescence intensity was plotted as normalised relative fluorescence units (RFU).
Using conjugates 1–5, we evaluated how the conjugation of the different fluorophores to EDAF (Fig. 1a) affected the optical properties. To do so, we defined their individual excitation and emission spectra, and determined the optimal FLI parameters. The different conjugates (Fig. 1b) were diluted in medium or in DMSO and the peak excitation and emission obtained are reported in Table 1, Fig. 1c and Fig. S17.

[4] = system: Skov-3 and A549 subcutaneous xenografts; experiment: In vivo FLI at optimal time points, Skov-3 versus A549 xenografts (target specificity); parameters: species or system NOD-scid IL2Rg^null mice; settings: 4 h after iv injection, p < 0.05
Method: as §1, with “Skov-3 and A549 subcutaneous xenografts were established through bi-lateral flank injections of 5 × 10^6 cells, resuspended in 100 μL PBS containing 16.7% Matrigel (Corning Inc., MA, USA).” left out
For biodistribution assessment of conjugates 1–5, mice were intravenously (iv) injected with 100 μL of a 10-μM conjugate solution when mean tumour volumes reached ≈150 mm^3, corresponding to a dose of 500 nmol/mouse. […] Fluorescence signals were analysed with the Living Imaging® software v4.5 (PerkinElmer Inc.) and expressed as average radiance (p/s/cm^2/sr). […] Next, subcutaneous xenograft models were imaged at the pre-determined optimal time points, which were 4 h for conjugates 1, 2 and 3 and 24 h for conjugates 4 and 5.

[5] = 4 h after iv injection, exposure time 2000 ms
[6] = 4 h after iv injection, Skov-3 subcutaneous xenograft
[7] = 8 h after iv injection, Skov-3 subcutaneous xenograft
[8] = 24 h after iv injection, exposure time 2000 ms
[9] = Skov-3 xenografted mice, 24 h after iv injection
[10] = 24 h after iv injection, Skov-3 subcutaneous xenograft

SMILES: CC1(C)C(/C=C/C2=C(Oc3ccc(CCC(=O)NCCNC(=O)CC[C@H](NC(=O)c4ccc(NCc5cnc6nc(N)[nH]c(=O)c6n5)cc4)C(=O)O)cc3)C(=C/C=C3/N(CCC[N+](C)(C)C)c4ccc(S(=O)(=O)O)cc4C3(C)C)/CCC2)=[N+](CCC[N+](C)(C)C)c2ccc(S(=O)(=O)O)cc21 [Conjugate 1, 2-((E)-2-((E)-2-(4-(3-((2-((S)-4-(4-(((2-amino-4-oxo-3,4-dihydropteridin-6-yl)methyl)amino)benzamido)-4-carboxybutanamido)ethyl)amino)-3-oxopropyl)phenoxy)-3-(2-((E)-3,3-dimethyl-5-sulfonato-1-(3-(trimethylammonio)propyl)indolin-2-ylidene)ethylidene)cyclohex-1-en-1-yl)vinyl)-3,3-dimethyl-1-(3-(trimethylammonio)propyl)-3H-indol-1-ium-5-sulfonate]
- ex vivo fluorescence signal in tumours (FLARE) [1, 5]: 156.9 ± 22.0 AU
- tumour to background ratio (TBR) [2, 6]: 1.9 ± 0.3
- tumour to background ratio (TBR) [2, 7]: 2.0 ± 0.4
- residual fluorescence in healthy organs in vivo ([2]; 24 h after iv injection): residual fluorescence signal in the kidneys
- excretion route ([2]; iv injection): renally cleared
- Stokes shift ([3]; DMSO): 24 nm
- λem ([3]; DMSO): 816 nm
- λex ([3]; DMSO): 792 nm
- Stokes shift ([3]; culture medium): 25 nm
- λem ([3]; culture medium): 802 nm
- λex ([3]; culture medium): 777 nm

SMILES: CC1(C)C(/C=C/C2=C(c3ccc(CCC(=O)NCCNC(=O)CC[C@H](NC(=O)c4ccc(NCc5cnc6nc(N)[nH]c(=O)c6n5)cc4)C(=O)O)cc3)C(=C/C=C3/N(CCC[N+](C)(C)C)c4ccc(S(=O)(=O)O)cc4C3(C)C)/CCC2)=[N+](CCC[N+](C)(C)C)c2ccc(S(=O)(=O)O)cc21 [Conjugate 2, 2-((E)-2-((E)-4'-(3-((2-((S)-4-(4-(((2-amino-4-oxo-3,4-dihydropteridin-6-yl)methyl)amino)benzamido)-4-carboxybutanamido)ethyl)amino)-3-oxopropyl)-6-(2-((E)-3,3-dimethyl-5-sulfonato-1-(3-(trimethylammonio)propyl)indolin-2-ylidene)ethylidene)-3,4,5,6-tetrahydro-[1,1'-biphenyl]-2-yl)vinyl)-3,3-dimethyl-1-(3-(trimethylammonio)propyl)-3H-indol-1-ium-5-sulfonate]
- ex vivo fluorescence signal in tumours (FLARE) [1, 5]: 213.1 ± 51.0 AU
- tumour to background ratio (TBR) [2, 6]: 1.8 ± 0.2
- tumour to background ratio (TBR) [2, 7]: 2.0 ± 0.2
- time that the fluorescence signal in Skov-3 tumours was sustained ([2]; after iv injection, last imaging time point 48 h): up to 48 h
- excretion route ([2]; iv injection): renally cleared
- difference in average radiance between Skov-3 and A549 tumours [4]: significant difference
- Stokes shift ([3]; DMSO): 28 nm
- λem ([3]; DMSO): 802 nm
- λex ([3]; DMSO): 774 nm
- Stokes shift ([3]; culture medium): 28 nm
- λem ([3]; culture medium): 788 nm
- λex ([3]; culture medium): 760 nm

SMILES: CC1(C)C(/C=C/C2=C(Oc3ccc(S(=O)(=O)O)cc3)C(=C/C=C3/N(CCCCS(=O)(=O)O)c4ccc(S(=O)(=O)[O-])cc4C3(C)C)/CCC2)=[N+](CCCCCC(=O)NCCNC(=O)CC[C@H](NC(=O)c2ccc(NCc3cnc4nc(N)[nH]c(=O)c4n3)cc2)C(=O)O)c2ccc(S(=O)(=O)O)cc21 [Conjugate 3, 1-(6-((2-((S)-4-(4-(((2-amino-4-oxo-3,4-dihydropteridin-6-yl)methyl)amino)benzamido)-4-carboxybutanamido)ethyl)amino)-6-oxohexyl)-2-((E)-2-((E)-3-(2-((E)-3,3-dimethyl-5-sulfonato-1-(4-sulfonatobutyl)indolin-2-ylidene)ethylidene)-2-(4-sulfonatophenoxy)cyclohex-1-en-1-yl)vinyl)-3,3-dimethyl-3H-indol-1-ium-5-sulfonate]
- ex vivo fluorescence signal in tumours (FLARE) [1, 5]: 189.7 ± 27.1 AU
- ex vivo fluorescence in the kidneys (FLARE) ([1]; Skov-3 xenografted mice, 4 h after iv injection): 913.6 ± 248.9 AU
- tumour to background ratio (TBR) [2, 6]: 1.2 ± 0.2
- tumour to background ratio (TBR) [2, 7]: 1.4 ± 0.3
- residual fluorescence in healthy organs in vivo ([2]; 24 h after iv injection): residual fluorescence signal in the kidneys
- excretion route ([2]; iv injection): renally cleared
- Stokes shift ([3]; DMSO): 28 nm
- λem ([3]; DMSO): 826 nm
- λex ([3]; DMSO): 798 nm
- Stokes shift ([3]; culture medium): 25 nm
- λem ([3]; culture medium): 808 nm
- λex ([3]; culture medium): 783 nm

SMILES: CC1(C)C(/C=C/C=C/C=C/C=C2\N(CCCCCC(=O)NCCNC(=O)CC[C@H](NC(=O)c3ccc(NCc4cnc5nc(N)[nH]c(=O)c5n4)cc3)C(=O)O)c3ccc4ccccc4c3C2(C)C)=[N+](CCCCS(=O)(=O)[O-])c2ccc3ccccc3c21 [Conjugate 4, 4-(2-((1E,3E,5E,7Z)-7-(3-(6-((2-((S)-4-(4-(((2-amino-4-oxo-3,4-dihydropteridin-6-yl)methyl)amino)benzamido)-4-carboxybutanamido)ethyl)amino)-6-oxohexyl)-1,1-dimethyl-1,3-dihydro-2H-benzo[e]indol-2-ylidene)hepta-1,3,5-trien-1-yl)-1,1-dimethyl-1H-benzo[e]indol-3-ium-3-yl)butane-1-sulfonate]
- ex vivo organ accumulation (IVIS Spectrum) ([1]; 24 h after iv injection): mainly in the liver
- ex vivo fluorescence signal in tumours (FLARE) [1, 8]: 56.4 ± 4.1 AU
- ex vivo fluorescence in the kidneys (FLARE) [1, 9]: 100.4 ± 37.8 AU
- ex vivo fluorescence intensity in the liver (FLARE) ([1]; Skov-3 xenografted mice, 24 h after iv injection, exposure time 2000 ms): 283.3 ± 38.7 AU
- tumour to background ratio (TBR) ([2]; 0.5 h after iv injection, Skov-3 subcutaneous xenograft): 1.3 ± 0.3
- tumour to background ratio (TBR) [2, 10]: 1.0 ± 0.1
- accumulation in tumours ([2]; Skov-3 subcutaneous xenograft, iv injection): no accumulation in tumours
- excretion route ([2]; iv injection): hepatobiliary excretion
- Stokes shift ([3]; DMSO): 42 nm
- λem ([3]; DMSO): 832 nm
- λex ([3]; DMSO): 790 nm
- Stokes shift ([3]; culture medium): 36 nm
- λem ([3]; culture medium): 820 nm
- λex ([3]; culture medium): 784 nm

SMILES: C[N+]1=C(/C=C/C2=C(Cl)C(=C/C=C3/N(CCCCCC(=O)NCCNC(=O)CC[C@H](NC(=O)c4ccc(NCc5cnc6nc(N)[nH]c(=O)c6n5)cc4)C(=O)O)c4ccccc4C3(C)C)/CCC2)C(C)(C)c2ccccc21 [Conjugate 5, 2-((E)-2-((E)-3-(2-((E)-1-(6-((2-((S)-4-(4-(((2-amino-4-oxo-3,4-dihydropteridin-6-yl)methyl)amino)benzamido)-4-carboxybutanamido)ethyl)amino)-6-oxohexyl)-3,3-dimethylindolin-2-ylidene)ethylidene)-2-chlorocyclohex-1-en-1-yl)vinyl)-1,3,3-trimethyl-3H-indol-1-ium]
- ex vivo organ accumulation (IVIS Spectrum) ([1]; 24 h after iv injection): in the stomach
- ex vivo fluorescence signal in tumours (FLARE) [1, 8]: 60.9 ± 6.3 AU
- ex vivo fluorescence in the kidneys (FLARE) [1, 9]: 63.9 ± 11.3 AU
- tumour to background ratio (TBR) [2, 10]: 2.1 ± 0.6
- excretion route ([2]; iv injection): hepatobiliary excretion
- time at which tumour fluorescence became evident ([2]; post-injection, Skov-3 subcutaneous xenograft): 4 h
- Stokes shift ([3]; DMSO): 24 nm
- λem ([3]; DMSO): 820 nm
- λex ([3]; DMSO): 796 nm
- Stokes shift ([3]; culture medium): 15 nm
- λem ([3]; culture medium): 804 nm
- λex ([3]; culture medium): 789 nm
